According to PubChem BioAssay AID435004 (Broad Institute, 2010):
Records with an inconclusive call do not appear. Activity calls are given as the source filed them.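 The calls were made as follows: active = EC50 at most a set number of log units above the top tested dose; inconclusive = flat curve fit with activity between 30% and 70%, or poor fit; inactive = EC50 further above the top dose than that.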

Test system: NIH3T3-HGL HSF1 luciferase reporter, MG132, 8 h
Test: HSF1 potentiators in luciferase reporter cells, confirmation, cell-based, NIH3T3, luminescence, dose retest (AID 435004)

Compound | EC50
O=C1CC(c2ccccc2Cl)CC(O)=C1C=Nc1ccccc1 (stereo not drawn) | 4.71 µM
CC(C)CCN=CC1=C(O)CC(c2ccccc2)CC1=O (stereo not drawn) | > 26 µM (inactive)
C#CCOCCOCCOCCNc1nc(N2CCN(C(=O)[C@H](Cc3cc4ccccc4[nH]3)n3cc(C(N)CC(C)C)nn3)CC2)nc(N2CCN(C(=O)[C@H](CCC(=O)O)n3cc(C(N)[C@H](C)CC)nn3)CC2)n1 (stereo partly drawn) | > 26 µM (inactive)
